Results published in PubChem BioAssay AID256 (DTP/NCI, 2004).
Toxic doses and inconclusive results are not listed.

Tested on: CD2F1 mice, L1210 leukemia ip, survival T/C
Test: NCI In Vivo Anticancer Drug Screen. Data for tumor model L1210 Leukemia (intraperitoneal) in CD2F1 (CDF1) mice
Conditions: endpoint: mean survival time, higher = longer survival
Method in brief: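 Vehicle-treated tumor-bearing mice served as controls (C) for compound-treated mice (T). Reported figure is T divided by C.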

[1] = dose: 100.0 mg/kg/injection, schedule: Q01DX001 (ip), vehicle: saline with Tween-80
[2] = dose: 100.0 mg/kg/injection, schedule: Q01DX009 (ip), vehicle: saline with Tween-80
[3] = dose: 200.0 mg/kg/injection, schedule: Q01DX001 (ip), vehicle: saline with Tween-80
[4] = dose: 200.0 mg/kg/injection, schedule: Q01DX009 (ip), vehicle: saline with Tween-80
[5] = dose: 400.0 mg/kg/injection, schedule: Q01DX001 (ip), vehicle: saline with Tween-80
[6] = dose: 100.0 mg/kg/injection, schedule: Q01DX001 (ip), vehicle: saline
[7] = dose: 200.0 mg/kg/injection, schedule: Q01DX001 (ip), vehicle: saline
[8] = dose: 50.0 mg/kg/injection, schedule: Q01DX009 (ip), vehicle: saline with Tween-80
[9] = dose: 100.0 mg/kg/injection, schedule: Q04DX003 (ip), vehicle: saline with Tween-80
[10] = dose: 200.0 mg/kg/injection, schedule: Q04DX003 (ip), vehicle: saline with Tween-80
[11] = dose: 400.0 mg/kg/injection, schedule: Q01DX009 (ip), vehicle: saline with Tween-80
[12] = dose: 25.0 mg/kg/injection, schedule: Q01DX009 (ip), vehicle: saline

**Q.** What does the source list for `COc1ccc(COC(=O)Oc2ccccc2)cc1OC`?
**A.** T/C (dose: 100.0 mg/kg/injection, schedule: Q04DX002 (ip), vehicle: saline with Tween-80): 93 % of control; T/C (dose: 200.0 mg/kg/injection, schedule: Q04DX002 (ip), vehicle: saline with Tween-80): 101 % of control; T/C (dose: 400.0 mg/kg/injection, schedule: Q04DX002 (ip), vehicle: saline with Tween-80): 96 % of control

**Q.** With `C[N+]1(C)N=C([O-])N(c2cccc3ccccc23)C1=O` as the compound, how does the T/C [1] read?
**A.** 98 % of control

**Q.** And the T/C [2]?
**A.** 103 % of control

**Q.** What about the T/C [3] of the same compound?
**A.** 101 % of control

**Q.** What about the T/C [4] of the same compound?
**A.** 108 % of control

**Q.** What about the T/C [5] of the same compound?
**A.** 98 % of control

**Q.** For `CCN(CC)CCCNc1ncnc(Cl)c1C(=C(C)C)c1ccccc1`, which T/C [6] is on record?
**A.** 97 % of control

**Q.** What about the T/C [7] of the same compound?
**A.** 105 % of control

**Q.** `O=C(CCl)Nc1cccc2c1CCCC2` was tested. Which T/C [8] did it give?
**A.** 97 % of control

**Q.** What about the T/C [2] of the same compound?
**A.** 94 % of control

**Q.** And the T/C [9]?
**A.** 98 % of control

**Q.** And the T/C [4]?
**A.** 91 % of control

**Q.** What about the T/C [10] of the same compound?
**A.** 96 % of control

**Q.** For `O=C(Nc1cccc2ccccc12)c1ccccc1`, which T/C [1] is on record?
**A.** 95 % of control

**Q.** What about the T/C [3] of the same compound?
**A.** 95 % of control

**Q.** And the T/C [5]?
**A.** 92 % of control

**Q.** Which results are given for `COC(=O)CNc1ccn(C2OC(CO)C(O)C2O)c(=O)n1` (centres undefined)?
**A.** T/C (dose: 12.5 mg/kg/injection, schedule: Q01DX005 (ip), vehicle: distilled water + Tween-80): 96 % of control; T/C (dose: 25.0 mg/kg/injection, schedule: Q01DX005 (ip), vehicle: distilled water + Tween-80): 100 % of control; T/C (dose: 50.0 mg/kg/injection, schedule: Q01DX005 (ip), vehicle: distilled water + Tween-80): 100 % of control; T/C (dose: 100.0 mg/kg/injection, schedule: Q01DX005 (ip), vehicle: distilled water + Tween-80): 97 % of control; T/C (dose: 200.0 mg/kg/injection, schedule: Q01DX005 (ip), vehicle: distilled water + Tween-80): 103 % of control

**Q.** Which T/C [1] does the source give for `N#CCCOS(=O)(=O)c1ccc(N)c([N+](=O)[O-])c1` here?
**A.** 103 % of control

**Q.** What about the T/C [2] of the same compound?
**A.** 93 % of control

**Q.** And the T/C [3]?
**A.** 100 % of control

**Q.** And the T/C [4]?
**A.** 96 % of control

**Q.** And the T/C [5]?
**A.** 102 % of control

**Q.** What about the T/C [11] of the same compound?
**A.** 96 % of control

**Q.** What does the source list for `O=Cc1ccc(C=O)cc1`?
**A.** T/C [2]: 104 % of control; T/C [4]: 98 % of control; T/C [11]: 96 % of control

**Q.** What does the source list for `O=[N+]([O-])c1ccc(OCc2ccccc2)cc1`?
**A.** T/C [2]: 98 % of control; T/C [4]: 98 % of control; T/C [11]: 98 % of control

**Q.** `CN=NCCO` was tested. Which T/C [12] did it give?
**A.** 104 % of control

**Q.** And the T/C (dose: 50.0 mg/kg/injection, schedule: Q01DX009 (ip), vehicle: saline)?
**A.** 96 % of control

**Q.** What about the T/C [6] of the same compound?
**A.** 94 % of control

**Q.** What about the T/C (dose: 100.0 mg/kg/injection, schedule: Q01DX009 (ip), vehicle: saline) of the same compound?
**A.** 100 % of control

**Q.** What about the T/C [7] of the same compound?
**A.** 94 % of control

**Q.** What does the source list for `c1ccc2c(c1)Nc1ccccc1S2`?
**A.** T/C [2]: 92 % of control; T/C [9]: 98 % of control; T/C [4]: 92 % of control; T/C [10]: 108 % of control; T/C [11]: 89 % of control; T/C (dose: 400.0 mg/kg/injection, schedule: Q04DX003 (ip), vehicle: saline with Tween-80): 101 % of control

**Q.** What does the source list for `O=C1/C(=C/c2ccccc2)CCSc2ccccc21`?
**A.** T/C [1]: 90 % of control; T/C [3]: 94 % of control; T/C [5]: 90 % of control

**Q.** What does the source list for `CC[n+]1ccc(Nc2ccc(NC(=O)c3ccc(Nc4cc[n+](CC)c5ccc([N+](=O)[O-])cc45)cc3)cc2)cc1`?
**A.** T/C (dose: 2.0 mg/kg/injection, schedule: Q01DX009 (ip), vehicle: saline sonified): 105 % of control; T/C (dose: 4.0 mg/kg/injection, schedule: Q01DX009 (ip), vehicle: saline sonified): 108 % of control; T/C (dose: 8.0 mg/kg/injection, schedule: Q01DX009 (ip), vehicle: saline sonified): 123 % of control; T/C (dose: 11.0 mg/kg/injection, schedule: Q01DX009 (ip), vehicle: saline): 119 % of control; T/C [12]: 162 % of control; T/C (dose: 37.5 mg/kg/injection, schedule: Q01DX009 (ip), vehicle: saline): 203 % of control

**Q.** `CS(=O)(=O)OCCBr` was tested. Which T/C (dose: 50.0 mg/kg/injection, schedule: Q04DX003 (ip), vehicle: saline) did it give?
**A.** 102 % of control

**Q.** Which results are given for `CCCC(C)CC(=CC(C)(C)C)CC(C)CCC` (centres undefined)?
**A.** T/C [8]: 96 % of control; T/C [2]: 100 % of control; T/C [4]: 100 % of control
